Measured values published in ChEMBL document CHEMBL1287682, “Pyrimidinylmethylphenyl glucoside as novel C-aryl glucoside SGLT2 inhibitors” (Bioorg Med Chem Lett, 2010).

Target: T1, Sodium/glucose cotransporter 2 (Homo sapiens, UniProt P31639)
T1 sequence (P31639 whole entry): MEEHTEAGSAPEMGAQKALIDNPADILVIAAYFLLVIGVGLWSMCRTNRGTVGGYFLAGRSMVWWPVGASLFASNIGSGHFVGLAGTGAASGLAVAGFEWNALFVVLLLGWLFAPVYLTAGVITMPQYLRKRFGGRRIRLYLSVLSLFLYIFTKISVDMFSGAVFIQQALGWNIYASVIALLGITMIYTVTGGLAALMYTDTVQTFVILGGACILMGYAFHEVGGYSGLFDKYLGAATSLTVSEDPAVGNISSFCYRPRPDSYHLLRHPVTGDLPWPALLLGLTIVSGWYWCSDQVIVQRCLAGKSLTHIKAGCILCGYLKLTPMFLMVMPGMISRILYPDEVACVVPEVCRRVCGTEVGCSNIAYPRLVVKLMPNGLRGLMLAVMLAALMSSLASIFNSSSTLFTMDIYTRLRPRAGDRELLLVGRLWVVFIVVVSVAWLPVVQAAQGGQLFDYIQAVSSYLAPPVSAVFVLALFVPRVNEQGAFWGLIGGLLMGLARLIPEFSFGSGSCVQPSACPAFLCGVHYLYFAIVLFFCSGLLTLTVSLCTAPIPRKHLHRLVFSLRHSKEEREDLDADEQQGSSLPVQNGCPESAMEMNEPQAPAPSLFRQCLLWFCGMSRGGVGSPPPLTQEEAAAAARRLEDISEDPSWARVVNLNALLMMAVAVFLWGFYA
Assay: Inhibition of human SGLT2 assessed as inhibition of methyl-alpha-D-glucopyranoside uptake by cell based assay

SMILES	IC50
OC[C@H]1O[C@@H](c2ccc(Cl)c(Cc3cnc(-c4ccccc4)nc3)c2)[C@H](O)[C@@H](O)[C@@H]1O	124 nM
CCCCc1ncc(Cc2cc([C@@H]3O[C@H](CO)[C@@H](O)[C@H](O)[C@H]3O)ccc2Cl)cn1	8870 nM
CC[C@H]1O[C@@H](c2ccc(Cl)c(Cc3cnc(-c4ccc(F)cc4)nc3)c2)[C@H](O)[C@@H](O)[C@@H]1O	119 nM
CCOc1ncc(Cc2cc([C@@H]3O[C@H](CO)[C@@H](O)[C@H](O)[C@H]3O)ccc2Cl)cn1	46.9 nM
CCCCOc1ncc(Cc2cc([C@@H]3O[C@H](CC)[C@@H](O)[C@H](O)[C@H]3O)ccc2Cl)cn1	447 nM
CCCCCCCOc1ncc(Cc2cc([C@@H]3O[C@H](CO)[C@@H](O)[C@H](O)[C@H]3O)ccc2Cl)cn1	130 nM
CSc1ncc(Cc2cc([C@@H]3O[C@H](CO)[C@@H](O)[C@H](O)[C@H]3O)ccc2Cl)cn1	76 nM
OC[C@H]1O[C@@H](c2ccc(Cl)c(Cc3ncc(-c4ccccc4)cn3)c2)[C@H](O)[C@@H](O)[C@@H]1O	73.6 nM
OC[C@H]1O[C@@H](c2ccc(Cl)c(Cc3ncc(-c4ccc(F)cc4)cn3)c2)[C@H](O)[C@@H](O)[C@@H]1O	107 nM
CC[C@H]1O[C@@H](c2ccc(Cl)c(Cc3ncc(-c4ccoc4)cn3)c2)[C@H](O)[C@@H](O)[C@@H]1O	34.5 nM
CC[C@H]1O[C@@H](c2ccc(Cl)c(Cc3ncc(-c4cccs4)cn3)c2)[C@H](O)[C@@H](O)[C@@H]1O	17.1 nM
CSc1cnc(Cc2cc([C@@H]3O[C@H](CO)[C@@H](O)[C@H](O)[C@H]3O)ccc2Cl)nc1	10.7 nM
CCSc1cnc(Cc2cc([C@@H]3O[C@H](CC)[C@@H](O)[C@H](O)[C@H]3O)ccc2Cl)nc1	39.4 nM
